Data: US12262710B2, “Fungicidal compounds” (SYNGENTA CROP PROTECTION AG, priority 2019, dated 2025)

How the values were obtained:
[1] = test system: Alternaria solani; assay: Alternaria solani (early blight of tomatoes), tomato leaf disks; format: in vivo; settings: foliar, inoculated 2 days after application, compared to untreated control
Method: Alternaria solani (Early Blight of Tomatoes) Tomato leaf disks are placed on agar in multiwell plates (24-well format) and sprayed with the formulated test compound diluted in water. The leaf disks are inoculated with a spore suspension of the fungus 2 days after application. The inoculated leaf disks are incubated at 23° C./21° C.

[2] = test system: Glomerella lagenarium; assay: Glomerella lagenarium syn. Colletotrichum lagenarium (anthracnose of cucurbits), liquid culture growth inhibition; format: cell-based; settings: Colletotrichum orbiculare, nutrient broth (PDB), 72 hrs, photometric at 620 nm, compared to untreated control
Method: Glomerella lagenarium Syn. Colletotrichum lagenarium (Anthracnose of Cucurbits): Conidia of the fungus from cryogenic storage were directly mixed into nutrient broth (PDB potato dextrose broth). A DMSO solution of the test compounds was placed into a microtiter plate (96-well format) and the nutrient broth containing the fungal spores was added to it. The test plates were incubated at 24° C. and the inhibition of growth was determined photometrically after 72 hrs at 620 nm. […]

[3] = test system: Erysiphe graminis f. sp. tritici; assay: Erysiphe graminis f. sp. tritici (wheat powdery mildew), wheat leaf segments, preventive; format: in vivo; settings: Blumeria graminis, foliar, 168 h, 7 dpi, compared to untreated control
Method: (§1) Wheat leaf segments are placed on agar in multiwell plates (24-well format) and sprayed with test solutions. After drying, the leaf disks are inoculated with spores of the fungus. After appropriate incubation the activity of a compound is assessed 7 dpi (days post inoculation) as preventive fungicidal activity.

[4] = test system: Monographella nivalis; assay: Monographella nivalis syn. Microdochium nivale (snow mould, foot rot of cereals), liquid culture growth inhibition; format: cell-based; settings: nutrient broth (PDB), 72 hrs, photometric at 620 nm, compared to untreated control
Method: Conidia of the fungus from cryogenic storage were directly mixed into nutrient broth (PDB potato dextrose broth). A DMSO solution of the test compounds was placed into a microtiter plate (96-well format) and the nutrient broth containing the fungal spores was added to it. The test plates were incubated at 24° C. and the inhibition of growth was determined photometrically after 72 hrs at 620 nm. […] Cercospora arachidicola (Brown Leaf Spot of Peanut): […]

[5] = test system: Mycosphaerella arachidis; assay: Mycosphaerella arachidis syn. Cercospora arachidicola (brown leaf spot of peanut), liquid culture growth inhibition; format: cell-based; settings: nutrient broth (PDB), approximately 5-6 days, photometric at 620 nm, compared to untreated control
Method: Conidia of the fungus from cryogenic storage were directly mixed into nutrient broth (PDB potato dextrose broth). A DMSO solution of the test compounds was placed into a microtiter plate (96-well format) and the nutrient broth containing the fungal spores was added to it. The test plates were incubated at 24° C. and the inhibition of growth was determined photometrically after approximately 5-6 […] at 620 nm.

[6] = test system: Phakopsora pachyrhizi; assay: Phakopsora pachyrhizi (soybean rust), soybean leaf disks, preventive; format: in vivo; settings: foliar, 288 h, approx. 12 dpi, compared to untreated control
Method: as §1, with “Soybean” for “Wheat”, “disks” for “segments”, “a spore suspension” for “spores”, “approx. 12” for “7”, “after” for “post”

[7] = test system: Phytophthora infestans; assay: whole plant or invertebrate; format: in vivo; settings: in Solanum lycopersicum, foliar, 96 h, read-out: control of Phytophthora infestans
[8] = test system: Plasmopara viticola; assay: Plasmopara viticola (downy mildew of grapevine), grape vine leaf disks, preventive; format: in vivo; settings: foliar, 168 h, 7 dpi, compared to untreated control
Method: as §1, with “Grape vine” for “Wheat”, “disks” for “segments”, “a spore suspension” for “spores”, “after” for “post”

[9] = test system: Puccinia recondita f. sp. tritici; assay: Puccinia recondita (brown rust), curative, wheat leaf segments; format: in vivo; settings: foliar, 192 h, sprayed 1 day after inoculation, 8 dpi, compared to untreated control
Method: (§2) Wheat leaf segments are placed on agar in multiwell plates (24-well format). The leaf segments are inoculated with a spore suspension of the fungus and sprayed with test solutions 1 day after inoculation. After appropriate incubation the activity of a compound is assessed 8 dpi (days after inoculation) as curative fungicidal activity.

[10] = test system: Puccinia recondita f. sp. tritici; assay: Puccinia recondita (brown rust), preventative, wheat leaf segments; format: in vivo; settings: foliar, 192 h, 8 dpi, compared to untreated control
Method: as §1, with “segments” for “disks”, “a spore suspension” for “spores”, “8” for “7”, “after” for “post”, “preventative” for “preventive”

[11] = test system: Pyricularia oryzae; assay: whole plant or invertebrate; format: in vivo; settings: foliar, 120 h, read-out: control of Pyricularia oryzae
[12] = test system: Puccinia recondita; assay: Example C: comparative activity against Puccinia recondita (brown rust), curative, wheat leaf segments; format: in vivo; settings: 8 dpi
Method: as §2, with “Method; Wheat” for “Wheat”, “activity. The data are presented as the percentage of disease control of each compound for the biological tests and testing rates described below in table H.” for “activity.”

[13] = test system: Phakopsora pachyrhizi; assay: Example D: comparative activity against Phakopsora pachyrhizi (soybean rust), soybean plants sprayed, leaf disks cut from treated plants; format: in vivo; settings: 0.1% OCHIMA, leaf disks cut one day after application, approx. 12 dpi
Method: Method: Soybean plants are sprayed in a spray chamber with formulated DMSO compound solutions which are diluted to the appropriate concentration with 0.1% […] (adjuvant comprising polyethoxylated sorbitol hexaoleate and tris(2-ethylhexyl) phosphate) just before spraying. Leaf disks are cut from treated plants and placed on agar into 24-well plates one day after application. After, the leaf disks are inoculated with a spore suspension of the fungus. After appropriate incubation the activity of a compound is assessed approx. 12 dpi (days after inoculation) as preventive fungicidal activity. The data are presented as the percentage of disease control of each compound for the biological tests and testing rates described below in Table 1.

[14] = test system: Phakopsora pachyrhizi; assay: Example E: comparative activity against Phakopsora pachyrhizi (soybean rust), soybean leaf disks sprayed; format: in vivo; settings: 0.025% Tween20, approx. 12 dpi
Method: Method: Compounds to be tested are prepared as DMSO solutions which are diluted to the appropriate concentration with 0.025% Tween20 just before spraying. Soybean leaf disks are placed on agar in multiwell plates (24-well format) and sprayed with test solutions. After drying, the leaf disks are inoculated with a spore suspension of the fungus. After appropriate incubation the activity of a compound is assessed approx. 12 dpi (days after inoculation) as preventive fungicidal activity. The data are presented as the percentage of disease control of each compound for the biological tests and testing rates described below in Table J.

CO/C=C(\Oc1cc(C2CCCCC2)ccc1C)C(=O)OC [E.15, methyl (Z)-2-(5-cyclohexyl-2-methyl-phenoxy)-3-methoxy-prop-2-enoate]
pest or weed control at 200 ppm [1]: ≥ 80% | inhibition of growth at 20 ppm [2]: ≥ 80% | pest or weed control at 200 ppm [3]: ≥ 80% | inhibition of growth at 20 ppm [4]: ≥ 80% | inhibition of growth at 20 ppm [5]: ≥ 80% | pest or weed control at 60 ppm [6]: ≥ 70% | pest or weed control at 200 ppm [7]: ≥ 80% | pest or weed control at 200 ppm [8]: ≥ 80% | pest or weed control at 200 ppm [9]: ≥ 80% | pest or weed control at 200 ppm [10]: ≥ 80% | pest or weed control at 200 ppm [11]: ≥ 80% | control (%) Puccinia recondita (Brown rust), curative ([12]; 20 ppm): 90% | control (%) Puccinia recondita (Brown rust), curative ([12]; 60 ppm): 100% | control (%) Puccinia recondita (Brown rust), curative ([12]; 200 ppm): 100% | control (%) Phakopsora pachyrhizi (Soybean rust) ([13]; 6 ppm): 0% | control (%) Phakopsora pachyrhizi (Soybean rust) ([13]; 20 ppm): 51% | control (%) Phakopsora pachyrhizi (Soybean rust) ([13]; 60 ppm): 97% | control (%) Phakopsora pachyrhizi (Soybean rust) ([13]; 200 ppm): 99% | control (%) Phakopsora pachyrhizi (Soybean rust) ([14]; 0.6 ppm): 10% | control (%) Phakopsora pachyrhizi (Soybean rust) ([14]; 2 ppm): 70% | control (%) Phakopsora pachyrhizi (Soybean rust) ([14]; 6 ppm): 95% | control (%) Phakopsora pachyrhizi (Soybean rust) ([14]; 20 ppm): 100% | control (%) Phakopsora pachyrhizi (Soybean rust) ([14]; 60 ppm): 100% | control (%) Phakopsora pachyrhizi (Soybean rust) ([14]; 200 ppm): 100%

CO/C=C(\Oc1cc(C2CCCCC2)c(F)cc1C)C(=O)OC [E.16, methyl (Z)-2-(5-cyclohexy1-4-fluoro-2-methyl-phenoxy)-3-methoxy-prop-2-enoate]
pest or weed control at 200 ppm [1]: ≥ 80% | inhibition of growth at 20 ppm [2]: ≥ 80% | pest or weed control at 200 ppm [3]: ≥ 80% | inhibition of growth at 20 ppm [4]: ≥ 80% | inhibition of growth at 20 ppm [5]: ≥ 80% | pest or weed control at 200 ppm [7]: ≥ 80% | pest or weed control at 200 ppm [8]: ≥ 80% | pest or weed control at 200 ppm [9]: ≥ 80% | pest or weed control at 200 ppm [10]: ≥ 80% | pest or weed control at 200 ppm [11]: ≥ 80%

CO/C=C(\Oc1cc(C2CCCC2)ccc1C)C(=O)OC [E.13, methyl (Z)-2-(5-cyclopentyl-2-methyl-phenoxy)-3-methoxy-prop-2-enoate]
pest or weed control at 200 ppm [1]: ≥ 80% | inhibition of growth at 20 ppm [2]: ≥ 80% | pest or weed control at 200 ppm [3]: ≥ 80% | inhibition of growth at 20 ppm [4]: ≥ 80% | inhibition of growth at 20 ppm [5]: ≥ 80% | pest or weed control at 60 ppm [6]: ≥ 70% | pest or weed control at 200 ppm [7]: ≥ 80% | pest or weed control at 200 ppm [8]: ≥ 80% | pest or weed control at 200 ppm [9]: ≥ 80% | pest or weed control at 200 ppm [10]: ≥ 80% | pest or weed control at 200 ppm [11]: ≥ 80% | control (%) Puccinia recondita (Brown rust), curative ([12]; 20 ppm): 0% | control (%) Puccinia recondita (Brown rust), curative ([12]; 60 ppm): 0% | control (%) Puccinia recondita (Brown rust), curative ([12]; 200 ppm): 100% | control (%) Phakopsora pachyrhizi (Soybean rust) ([13]; 6 ppm): 0% | control (%) Phakopsora pachyrhizi (Soybean rust) ([13]; 20 ppm): 4% | control (%) Phakopsora pachyrhizi (Soybean rust) ([13]; 60 ppm): 46% | control (%) Phakopsora pachyrhizi (Soybean rust) ([13]; 200 ppm): 98% | control (%) Phakopsora pachyrhizi (Soybean rust) ([14]; 0.6 ppm): 10% | control (%) Phakopsora pachyrhizi (Soybean rust) ([14]; 2 ppm): 10% | control (%) Phakopsora pachyrhizi (Soybean rust) ([14]; 6 ppm): 60% | control (%) Phakopsora pachyrhizi (Soybean rust) ([14]; 20 ppm): 100% | control (%) Phakopsora pachyrhizi (Soybean rust) ([14]; 60 ppm): 100% | control (%) Phakopsora pachyrhizi (Soybean rust) ([14]; 200 ppm): 100%
